Laboratory results published in publication PMC9693575, “Isopropyl Amino Acid Esters Ionic Liquids as Vehicles for Non-Steroidal Anti-Inflammatory Drugs in Potential Topical Drug Delivery Systems with Antimicrobial Activity” (International Journal of Molecular Sciences, 2022).

Legend:
[1] = tested on: Escherichia coli; test: Disc diffusion antimicrobial susceptibility test, Escherichia coli; type: cell-based; design: key to Inhibition diameter: -: no growth of the organism
Experimental: (§1) The plates were incubated for 24 h at 37 °C.

[2] = tested on: Micrococcus Luteus; test: Disc diffusion antimicrobial susceptibility test, Micrococcus luteus; type: cell-based; design: key to Inhibition diameter: -: no growth of the organism; conditions: for zone of inhibition at 25000 µg/mL / zone of inhibition at 50000 µg/mL / zone of inhibition at 100000 µg/mL / zone of inhibition at 200000 µg/mL / zone of inhibition at 400000 µg/mL / zone of inhibition at 600000 µg/mL / zone of inhibition at 800000 µg/mL: Micrococcus luteus, 24 h, read-out: Inhibition diameter
[3] = tested on: Staphylococcus epidermidis; test: Disc diffusion antimicrobial susceptibility test, Staphylococcus epidermidis; type: cell-based; design: key to Inhibition diameter: -: no growth of the organism
Experimental: as §1

[4] = Thermogravimetric analysis (thermal stability); conditions: for TDTGmax, maximum decomposition temperature: DTG, air atmosphere, 10 °C min−1
Experimental: The thermal stabilities of the obtained NSAIDs isopropyl ester amino acid salts were investigated. […] The beginning of thermal degradation was evaluated based on the value of onset of the TG curve, which occurs in the first phase of the process. […]
Thermogravimetric analysis (TG)
Thermogravimetric analysis was carried out using Netzsch Proteus Thermal Analy- […]
Samples of 5–8 mg were loaded in Al2O3 […]
ment was performed in an air atmosphere (25 cm3min−1) with nitrogen flow (10 cm3min−1) […]
Differential scanning calorimetry (DSC)
Phase transformation temperatures were determined on a PerkinElmer DSC-7 (Rot-gau, Germany). The samples of 3–5 mg were loaded on the aluminum pan with a crimped lid. Measurements were carried out in a nitrogen atmosphere (20 cm3 min-1). The rate of heating/cooling was 5°C min-1. […]
tained for 30 min inside the furnace, then cooled to 0°C to condition the sample and the crucible. After that, heating was conducted to the specified temperature, followed by cool-ing. Unless otherwise stated, two complete cycles of heating and cooling were performed.
The specified maximum temperature was individual for each compound, determined from TG analysis, and it was at least 10°C lower than the onset decomposition tempera-ture. Temperatures reported from DSC data are curve peaks, the melting points being endothermic upon heating and crystallization point being exothermic upon cooling. Lead, indium, tin, and zinc were used as standards to calibrate the temperature. Indium was used for enthalpy measurement calibration. […]

[5] = solution transferred to disc 25 mg cm^−3
[6] = solution transferred to disc 50 mg cm^−3
[7] = solution transferred to disc 100 mg cm^−3
[8] = solution transferred to disc 200 mg cm^−3
[9] = solution transferred to disc 400 mg cm^−3
[10] = solution transferred to disc 600 mg cm^−3
[11] = solution transferred to disc 1000 mg cm^−3
[12] = solution transferred to disc 800 mg cm^−3

SMILES	Inhibition diameter [1, 5]	Inhibition diameter [1, 6]	Inhibition diameter [1, 7]	Inhibition diameter [1, 8]	Inhibition diameter [1, 9]	Inhibition diameter [1, 10]	Inhibition diameter [1, 11]	Inhibition diameter [2, 5]	Inhibition diameter [2, 6]	Inhibition diameter [2, 7]	Inhibition diameter [2, 8]	Inhibition diameter [2, 9]	Inhibition diameter [3, 5]	Inhibition diameter [3, 6]	Inhibition diameter [3, 7]	Inhibition diameter [3, 8]	Inhibition diameter [3, 9]	Inhibition diameter [3, 10]	Inhibition diameter [3, 12]	Inhibition diameter [3, 11]	further results
CC(C(=O)O)c1cccc(C(=O)c2ccccc2)c1.CSCCC(N)C(=O)OC(C)C (mixture of isomers) [[L-MetOiPr][KETO], L-methionine isopropyl ester ketoprofenate]	-	-	7.3 ± 0.5 mm	8.0 ± 0.6 mm	8.9 ± 0.5 mm	10.6 ± 0.7 mm	12.9 ± 0.4 mm	-	7.2 ± 0.2 mm	8.2 ± 0.2 mm	8.5 ± 0.3 mm	9.2 ± 0.1 mm	-	-	-	-	-	-	-	7.4 ± 0.2 mm	Inhibition diameter [2, 10]: 9.6 ± 0.2 mm; Inhibition diameter [2, 12]: 12.4 ± 0.2 mm; Inhibition diameter [2, 11]: 14.3 ± 0.2 mm
CC(C(=O)O)c1cccc(C(=O)c2ccccc2)c1.CC(C)OC(=O)C(N)C(C)O (mixture of isomers) [[L-ThrOiPr][KETO], L-threonine isopropyl ester ketoprofenate]	-	-	-	-	-	-	-	-	-	-	7.4 ± 0.3 mm	9.6 ± 0.1 mm	-	-	-	-	-	-	-	-	Inhibition diameter [2, 10]: 14.3 ± 0.2 mm; Inhibition diameter [2, 12]: 15.4 ± 0.2 mm; Inhibition diameter [2, 11]: 17.4 ± 0.1 mm; inhibition zone (in words) ([3]; S. epidermidis, tested concentrations): no inhibition zone was observed
CC(C(=O)O)c1cccc(C(=O)c2ccccc2)c1.CC(C)OC(=O)C(N)C(C)C (mixture of isomers) [[L-ValOiPr][KETO]]	-	-	-	6.7 ± 0.3 mm	7.0 ± 0.2 mm	7.6 ± 0.3 mm	8.3 ± 0.4 mm	6.3 ± 0.2 mm	7.4 ± 0.1 mm	8.5 ± 0.3 mm	9.1 ± 0.3 mm	10.3 ± 0.2 mm	-	-	-	-	6.2 ± 0.1 mm	6.3 ± 0.1 mm	6.3 ± 0.2 mm	6.9 ± 0.2 mm	Inhibition diameter [2, 10]: 11.7 ± 0.1 mm; Inhibition diameter [2, 11]: 15.1 ± 0.2 mm
CC(C)Cc1ccc(C(C)C(=O)O)cc1 (racemic) [IBU, (R,S)-ibuprofen, reference compound]	-	-	-	-	-	-	-														zone of inhibition at 25000 µg/mL [2, 5]: 8.6 ± 0.3 mm; zone of inhibition at 50000 µg/mL [2, 6]: 9.4 ± 0.2 mm; zone of inhibition at 100000 µg/mL [2, 7]: 9.7 ± 0.2 mm; zone of inhibition at 200000 µg/mL [2, 8]: 10.2 ± 0.1 mm; zone of inhibition at 400000 µg/mL [2, 9]: 10.6 ± 0.1 mm; zone of inhibition at 600000 µg/mL [2, 10]: 11.5 ± 0.2 mm; zone of inhibition at 800000 µg/mL [2, 12]: 12.7 ± 0.2 mm; zone of inhibition at 25000 µg/mL ([3]; Staphylococcus epidermidis, 24 h, solution transferred to disc 25 mg cm^−3, read-out: Inhibition diameter): 10.8 ± 0.3 mm; zone of inhibition at 50000 µg/mL ([3]; Staphylococcus epidermidis, 24 h, solution transferred to disc 50 mg cm^−3, read-out: Inhibition diameter): 11.5 ± 0.3 mm; zone of inhibition at 100000 µg/mL ([3]; Staphylococcus epidermidis, 24 h, solution transferred to disc 100 mg cm^−3, read-out: Inhibition diameter): 14.9 ± 0.3 mm; zone of inhibition at 200000 µg/mL ([3]; Staphylococcus epidermidis, 24 h, solution transferred to disc 200 mg cm^−3, read-out: Inhibition diameter): 15.3 ± 0.3 mm; zone of inhibition at 400000 µg/mL ([3]; Staphylococcus epidermidis, 24 h, solution transferred to disc 400 mg cm^−3, read-out: Inhibition diameter): 16.4 ± 0.2 mm; zone of inhibition at 600000 µg/mL ([3]; Staphylococcus epidermidis, 24 h, solution transferred to disc 600 mg cm^−3, read-out: Inhibition diameter): 17.6 ± 0.2 mm; zone of inhibition at 800000 µg/mL ([3]; Staphylococcus epidermidis, 24 h, solution transferred to disc 800 mg cm^−3, read-out: Inhibition diameter): 18.6 ± 0.2 mm; TTGonset, the onset of the thermal degradation [4]: 186.2 °C; TDTGmax, maximum decomposition temperature [4]: 218.8 °C
COc1ccc2cc([C@H](C)C(=O)O)ccc2c1 [NAP, S-(+)-naproxen, reference compound]	-	-	-	-	-	-	-						-	-	-	-	-	-	-	-	zone of inhibition at 25000 µg/mL [2, 5]: 6.2 ± 0.1 mm; zone of inhibition at 50000 µg/mL [2, 6]: 6.4 ± 0.1 mm; zone of inhibition at 100000 µg/mL [2, 7]: 6.7 ± 0.1 mm; zone of inhibition at 200000 µg/mL [2, 8]: 6.8 ± 0.1 mm; zone of inhibition at 400000 µg/mL [2, 9]: 7.3 ± 0.2 mm; zone of inhibition at 600000 µg/mL [2, 10]: 7.6 ± 0.2 mm; zone of inhibition at 800000 µg/mL [2, 12]: 8.5 ± 0.2 mm; TTGonset, the onset of the thermal degradation [4]: 224.5 °C; TDTGmax, maximum decomposition temperature [4]: 284.0 °C
CC(C(=O)O)c1cccc(C(=O)c2ccccc2)c1.CC[C@H](C)[C@H](N)C(=O)OC(C)C [[L-IleOiPr][KETO], L-isoleucine isopropyl ester ketoprofenate]	-	-	-	-	-	-	-	-	6.3 ± 0.2 mm	6.6 ± 0.3 mm	7.1 ± 0.2 mm	7.3 ± 0.1 mm	-	-	-	-	6.2 ± 0.1 mm	7.3 ± 0.2 mm	8.3 ± 0.1 mm	10.4 ± 0.2 mm	Inhibition diameter [2, 10]: 8.3 ± 0.2 mm; Inhibition diameter [2, 12]: 8.4 ± 0.3 mm; Inhibition diameter [2, 11]: 9.4 ± 0.2 mm
COc1ccc2cc([C@H](C)C(=O)O)ccc2c1.CSCC[C@H](N)C(=O)OC(C)C [[L-MetOiPr][NAP], L-methionine isopropyl ester naproxenate]	-	-	-	6.4 ± 0.3 mm	7.1 ± 0.1 mm	7.3 ± 0.2 mm	7.7 ± 0.2 mm	-	-	-	-	6.4 ± 0.1 mm	-	-	-	-	-	-	-	7.5 ± 0.3 mm	Inhibition diameter [2, 10]: 7.1 ± 0.2 mm; Inhibition diameter [2, 12]: 7.5 ± 0.1 mm; Inhibition diameter [2, 11]: 7.8 ± 0.2 mm; TTGonset, the onset of the thermal degradation [4]: 149.6 °C; TDTGmax, maximum decomposition temperature [4]: 293.2 °C
